Several values for one entry are separate records, joined by “and”; a condition that tells them apart may be missing. Equal values may be shown once. Read-outs that look alike come from different tables or passages of the source.
Columns and labels:
MSI CDX and PDX models = assay: In vivo screen in a panel of CDX and PDX models; design: species or system mouse; conditions: 60 or 120 mg per kg once daily
Experimental: All animal studies were conducted in accordance with ethics and procedures covered by permit BS-2275 and BS-1975 issued by the Kantonales Veterinäramt Basel-Stadt and in strict adherence to guidelines of the Eidgenössisches Tierschutzgesetz and the Eidgenössische Tierschutzverordnung, Switzerland. All animal studies were approved by the internal ethics committee. All animals had access to food and water ad libitum and were identified with transponders. They were housed in a specific-pathogen-free facility in IVC racks under a 12 h–12 h light–dark cycle. To establish cell-line-derived xenograft models, 6–7-week-old female athymic nude (Crl:NU(NCr)-Foxn1^nu) or SCID-BEIGE (CB17.Cg-PrkdcscidLystbg-J/Crl) mice from Charles River were engrafted subcutaneously with 5 million tumour cells in HBSS (H6648, Sigma-Aldrich). For SNU-407, Lovo, IM95, RL95.2, Ishikawa and IGROV-1, the cells were concentrated in 50% Matrigel (354234, Corning). Patient-derived xenografts were induced and expanded by transplantation as previously described. […] For the efficacy experiment, mice were randomized into groups (n = 5–6) for a mean tumour size of 100–150 mm^3. […] Blood samples were collected on day 7 and 91. […] Tumour responses are reported with the measures of tumour volumes from the treatment start. […] Animals were randomized (n = 3) and tumour samples were collected at 0, 1, 4, 8 and 24 h on the first day and then collected 4 h after the last treatment on day 3, 8, 10, 14 (including a 24 h timepoint), 17 and 21. Tumours were excised, weighed, either frozen in liquid nitrogen and cryogenic dry pulverized with the CryoPrep system (model CP-02, Covaris) or processed to FFPE after fixation. […] On day 12, blood samples were collected for PK analysis. On the last day (3 h after the last treatment), tumours were excised, weighed, frozen in liquid nitrogen and cryogenic dry pulverized for PD analysis.

SNU407 = assay: CFA 10-14 day clonogenic assay; format: cell-based; conditions: Homo sapiens, SNU-407
SNUC5 = assay: 4 day proliferation assay (CellTiter-Glo); conditions: Homo sapiens, 96 h, read-out: 4 day assay GI50
[1] = Compound 3 blood PK in SW48 tumour-bearing mice; format: in vivo, mouse
Experimental: All animal studies were conducted in accordance with ethics and procedures covered by permit BS-2275 and BS-1975 issued by the Kantonales Veterinäramt Basel-Stadt and in strict adherence to guidelines of the Eidgenössisches Tierschutzgesetz and the Eidgenössische Tierschutzverordnung, Switzerland. All animal studies were approved by the internal ethics committee. All animals had access to food and water ad libitum and were identified with transponders. They were housed in a specific-pathogen-free facility in IVC racks under a 12 h–12 h light–dark cycle. To establish cell-line-derived xenograft models, 6–7-week-old female athymic nude (Crl:NU(NCr)-Foxn1^nu) or SCID-BEIGE (CB17.Cg-PrkdcscidLystbg-J/Crl) mice from Charles River were engrafted subcutaneously with 5 million tumour cells in HBSS (H6648, Sigma-Aldrich). For SNU-407, Lovo, IM95, RL95.2, Ishikawa and IGROV-1, the cells were concentrated in 50% Matrigel (354234, Corning). Patient-derived xenografts were induced and expanded by transplantation as previously described. […]. For the efficacy experiment, mice were randomized into groups (n = 5–6) for a mean tumour size of 100–150 mm^3. […] Blood samples were collected on day 7 and 91. […]. Tumour responses are reported with the measures of tumour volumes from the treatment start. […]. Animals were randomized (n = 3) and tumour samples were collected at 0, 1, 4, 8 and 24 h on the first day and then collected 4 h after the last treatment on day 3, 8, 10, 14 (including a 24 h timepoint), 17 and 21. Tumours were excised, weighed, either frozen in liquid nitrogen and cryogenic dry pulverized with the CryoPrep system (model CP-02, Covaris) or processed to FFPE after fixation. […]. On day 12, blood samples were collected for PK analysis. On the last day (3 h after the last treatment), tumours were excised, weighed, frozen in liquid nitrogen and cryogenic dry pulverized for PD analysis. […]. […]

## CCc1c(N2CCN(C(=O)c3ncnc(C)c3O)CC2)c(=O)n2nc(C3=CCOCC3)nc2n1CC(=O)Nc1ccc(C(F)(F)F)cc1Cl [HRO761]
MSI CDX and PDX models
  complete responses: 9%
  disease control rate: approximately 70%
  partial responses: 30%
  stable diseases: 35%
SNU407
  GI50: 0.025 µM
SNUC5
  GI50: 7.24 µM

## CCc1c(N2CCN(C(=O)c3ncccc3O)CC2)c(=O)n2nc(C3=CCOCC3)nc2n1CC(=O)Nc1ccc(C(F)(F)F)cc1C [compound 3]
[1]; 15mg/kg BID, 1 h, single mouse, listed as WRNi #4, read-out: Total blood concentration
  concentration at 4 h: 680 nM and 520 nM
[1]; 15mg/kg BID, 2 h, single mouse, listed as WRNi #4, read-out: Total blood concentration
  concentration at 4 h: 110 nM and 260 nM and 360 nM
[1]; 15mg/kg BID, 4 h, single mouse, listed as WRNi #4, read-out: Total blood concentration
  concentration at 4 h: 100 nM and 200 nM
[1]; 15mg/kg BID, 8 h, single mouse, listed as WRNi #4, read-out: Total blood concentration
  concentration at 4 h: 80 nM and 130 nM and 220 nM
[1]; 15mg/kg BID, last day of the efficacy experiment, 0.5 h post treatment, single mouse, listed as WRNi #4, read-out: Total blood concentration
  concentration at 4 h: 450 nM and 470 nM and 950 nM
[1]; 50mg/kg BID, 0.5 h, single mouse, listed as WRNi #4, read-out: Total blood concentration
  concentration at 4 h: 8660 nM and 6870 nM
[1]; 50mg/kg BID, 1 h, single mouse, listed as WRNi #4, read-out: Total blood concentration
  concentration at 4 h: 5090 nM and 4750 nM
[1]; 50mg/kg BID, 2 h, single mouse, listed as WRNi #4, read-out: Total blood concentration
  concentration at 4 h: 1600 nM and 2410 nM
[1]; 50mg/kg BID, 4 h, single mouse, listed as WRNi #4, read-out: Total blood concentration
  concentration at 4 h: 470 nM and 240 nM and 860 nM
[1]; 50mg/kg BID, 8 h, single mouse, listed as WRNi #4, read-out: Total blood concentration
  concentration at 4 h: 100 nM and 210 nM and 230 nM
[1]; 150mg/kg BID, 0.5 h, single mouse, listed as WRNi #4, read-out: Total blood concentration
  concentration at 4 h: 23940 nM and 28210 nM
[1]; 150mg/kg BID, 1 h, single mouse, listed as WRNi #4, read-out: Total blood concentration
  concentration at 4 h: 13050 nM and 11280 nM
[1]; 150mg/kg BID, 2 h, single mouse, listed as WRNi #4, read-out: Total blood concentration
  concentration at 4 h: 7350 nM and 7410 nM
[1]; 150mg/kg BID, 4 h, single mouse, listed as WRNi #4, read-out: Total blood concentration
  concentration at 4 h: 3220 nM and 720 nM and 1060 nM
[1]; 150mg/kg BID, 8 h, single mouse, listed as WRNi #4, read-out: Total blood concentration
  concentration at 4 h: 460 nM and 210 nM and 390 nM
[1]; female, mouse, whole blood, oral, 15 mg/kg, 15mg/kg BID, 0.5 h, read-out: Mean total blood concentration
  concentration at 0.5 h: 620 nM
[1]; female, mouse, whole blood, oral, 15 mg/kg, 15mg/kg BID, 1 h, read-out: Mean total blood concentration
  concentration at 1 h: 680 nM
[1]; female, mouse, whole blood, oral, 15 mg/kg, 15mg/kg BID, 1 h, single mouse, read-out: Total blood concentration
  concentration at 1 h: 840 nM
[1]; female, mouse, whole blood, oral, 15 mg/kg, 15mg/kg BID, 2 h, read-out: Mean total blood concentration
  concentration at 2 h: 240 nM
[1]; female, mouse, whole blood, oral, 15 mg/kg, 15mg/kg BID, 4 h, read-out: Mean total blood concentration
  concentration at 4 h: 130 nM
[1]; female, mouse, whole blood, oral, 15 mg/kg, 15mg/kg BID, 4 h, single mouse, read-out: Total blood concentration
  concentration at 4 h: 100 nM
[1]; female, mouse, whole blood, oral, 15 mg/kg, 15mg/kg BID, 8 h, read-out: Mean total blood concentration
  concentration at 8 h: 140 nM
[1]; female, mouse, whole blood, oral, 50 mg/kg, 50mg/kg BID, 0.5 h, read-out: Mean total blood concentration
  concentration at 0.5 h: 7340 nM
[1]; female, mouse, whole blood, oral, 50 mg/kg, 50mg/kg BID, 0.5 h, single mouse, read-out: Total blood concentration
  concentration at 0.5 h: 6500 nM
[1]; female, mouse, whole blood, oral, 50 mg/kg, 50mg/kg BID, 1 h, read-out: Mean total blood concentration
  concentration at 1 h: 4820 nM
[1]; female, mouse, whole blood, oral, 50 mg/kg, 50mg/kg BID, 1 h, single mouse, read-out: Total blood concentration
  concentration at 1 h: 4620 nM
[1]; female, mouse, whole blood, oral, 50 mg/kg, 50mg/kg BID, 2 h, read-out: Mean total blood concentration
  concentration at 2 h: 2060 nM
[1]; female, mouse, whole blood, oral, 50 mg/kg, 50mg/kg BID, 2 h, single mouse, read-out: Total blood concentration
  concentration at 2 h: 2180 nM
[1]; female, mouse, whole blood, oral, 50 mg/kg, 50mg/kg BID, 4 h, read-out: Mean total blood concentration
  concentration at 4 h: 520 nM
[1]; female, mouse, whole blood, oral, 50 mg/kg, 50mg/kg BID, 8 h, read-out: Mean total blood concentration
  concentration at 8 h: 180 nM
[1]; female, mouse, whole blood, oral, 150 mg/kg, 150mg/kg BID, 0.5 h, read-out: Mean total blood concentration
  concentration at 0.5 h: 22900 nM
[1]; female, mouse, whole blood, oral, 150 mg/kg, 150mg/kg BID, 0.5 h, single mouse, read-out: Total blood concentration
  concentration at 0.5 h: 16500 nM
[1]; female, mouse, whole blood, oral, 150 mg/kg, 150mg/kg BID, 1 h, read-out: Mean total blood concentration
  concentration at 1 h: 14700 nM
[1]; female, mouse, whole blood, oral, 150 mg/kg, 150mg/kg BID, 1 h, single mouse, read-out: Total blood concentration
  concentration at 1 h: 19700 nM
[1]; female, mouse, whole blood, oral, 150 mg/kg, 150mg/kg BID, 2 h, read-out: Mean total blood concentration
  concentration at 2 h: 8330 nM
[1]; female, mouse, whole blood, oral, 150 mg/kg, 150mg/kg BID, 2 h, single mouse, read-out: Total blood concentration
  concentration at 2 h: 10200 nM
[1]; female, mouse, whole blood, oral, 150 mg/kg, 150mg/kg BID, 4 h, read-out: Mean total blood concentration
  concentration at 4 h: 1670 nM
[1]; female, mouse, whole blood, oral, 150 mg/kg, 150mg/kg BID, 8 h, read-out: Mean total blood concentration
  concentration at 8 h: 350 nM

Reference: paper PMC11078746 (Nature, 2024)
